This note sets out measurements from US8999990B2, “Inhibitors of the renal outer medullary potassium channel” (Merck Sharp & Dohme Corp., priority 2011, dated 2015).

One may read the IC50 as the point on the concentration scale where inhibition reaches its midpoint. A higher IC50 goes with weaker potency in that assay.

The target of this assay is T1, hROMK1 (Kir1.1) (Homo sapiens, UniProt P48048).
T1 construct: expressed in transfected cells
T1 sequence (P48048 1-391): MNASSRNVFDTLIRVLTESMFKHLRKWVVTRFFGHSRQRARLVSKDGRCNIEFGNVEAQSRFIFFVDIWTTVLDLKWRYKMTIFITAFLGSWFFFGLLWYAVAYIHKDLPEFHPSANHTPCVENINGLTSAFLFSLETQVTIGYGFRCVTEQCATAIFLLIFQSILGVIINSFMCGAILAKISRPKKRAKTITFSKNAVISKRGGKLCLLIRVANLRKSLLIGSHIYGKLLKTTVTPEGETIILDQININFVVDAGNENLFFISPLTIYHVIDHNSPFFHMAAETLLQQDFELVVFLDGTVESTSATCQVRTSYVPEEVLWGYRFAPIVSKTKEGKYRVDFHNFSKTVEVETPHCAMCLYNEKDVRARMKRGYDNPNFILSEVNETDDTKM
The assay is described as follows: 86Rb+ Efflux Assay. Format: cell-based. To be noted: CHO-DHFR- cells stably expressing hROMK1; 35 min incubation. How it is done: Several assays may be used to measure functional inhibition of the ROMK channel by compounds of the instant invention. One assay that was used to test the activity of compounds in the Examples is the functional ^86Rb^+ efflux assay described below, that measures the ability of ROMK to permeate ^86Rb^+, in the absence or presence of test compound. Under control conditions, cells loaded with ^86Rb^+ and incubated in Rb^+-free medium display a time-dependent efflux of the isotope, the rate of which depends on number of functional channels. When cells are incubated in the presence of a channel inhibitor, efflux of ^86Rb^+ is prevented in a concentration-dependent manner, and IC50 values of inhibition by compounds can be accurately determined. This assay has been established with cell lines expressing either human, rat or dog ROMK channels, and can operate in 96- or 384-well format. Importantly, the human, rat, and dog ^86Rb^+ efflux assays can be carried out in the presence of up to 100% serum allowing, therefore, an accurate estimation of the effect of protein binding on the inhibitory activity of compounds of interest. Another ROMK functional assay used to test the activity of compounds in the Examples (described below) makes use of the ability of thallium to permeate through open ROMK channels and increase the fluorescence of a dye previously loaded into the cells. Under control conditions, cells loaded with dye and exposed to thallium-containing medium display a time-dependent increase in fluorescence, the rate of which depends on number of functional channels. When cells are incubated in the presence of a channel inhibitor, the increase in fluorescence is attenuated in a concentration-dependent manner, and IC50 values of inhibition by compounds can be accurately determined. This assay has been established with cell lines expressing either human, or rat ROMK channels, and operates in 384-well format.
CHO-DHFR-cells stably expressing hROMK1 (Kir1.1) are grown at 37° C. in a 10% CO2 humidified incubator in Iscove's Modified Dulbecco's Medium (Gibco 12440) supplemented with HT Supplement, Penicillin/Streptomycin/Glutamine, G418 (500 μg/ml) and 10% FBS. Cells are seeded in Sterile and Tissue Culture Treated Packard CulturPlate White Opaque Microplates at a concentration of 5.0E5-7.0E5 cells/ml-PerkinElmer 6005680 (96-well); Corning 3707 (384 well) in complete media containing 1.5 μCi/ml Rubidium-86. Cells are incubated in 37° C.-10% CO2 incubator overnight. On the day of the experiment, the media is removed and cells are washed with low K assay buffer. ^86Rb^+ efflux is initiated after addition of assay buffer±test compound followed by 35 min incubation at room temperature. ROMK-sensitive component of efflux is defined in the presence of 10 mM BaCl2. Assay buffer is removed and transferred to a plate and cells are solubilized in the presence of SDS. Radioactivity associated with assay and cell plate is determined.
• 1. Remove cell media and wash cells with low K assay buffer (126.9 mM NaCl, 4.6 mM KCl, 2 mM CaCl2, 1 mM MgCl2, 10 mM Hepes/NaOH; pH 7.4) • 200 μl for 96-well plate; 70 μl for 384-well plate • 2. Add assay buffer (121.5 mM NaCl, 10 mM KCl, 2 mM CaCl2, 1 mM MgCl2, 10 mM Hepes/NaOH; pH 7.4)±test compound to cells • 100 μl for 96-well plate; 50 μl for 384-well plate • 3. Incubate at ambient temperature (22-24° C.) for 35 min • 4. Remove assay buffer add it to a 96- or 384-well plate containing Microscint-20 • 96-well Plate: 100 μl buffer, 170 μl MicroScint 20 (for TopCount) • 384-well plate: 20 μl buffer, 50 μl Optiphiase (for MicroLux) • 5. Completely remove remaining assay buffer from cell plate • 6. Solubilize cells with 1% SDS; than add MicroScint or Optiphase • 96-well Plate: 30 μl SDS, 170 μl MicroScint 20 (for TopCount) • 384-well plate: 20 μl SDS, 50 μl Optiphiase (for MicroLux) • 7. Seal both cell and supernatant plates and count Data Calculation— […]
With `O=C1CN(CCc2ccc([N+](=O)[O-])c(F)c2)CCN1CCc1ccc([N+](=O)[O-])cc1` [Example 18, 4-[2-(3-Fluoro-4-nitrophenyl)ethyl]-1-[2-(4-nitrophenyl)ethyl]piperazin-2-one], the IC50 was 40 nM.
With `O=C1CN(CCc2ccc([N+](=O)[O-])cc2)CCN1CCc1ccc2nonc2c1` [Example 24, 1-[2-(2,1,3-Benzoxadiazol-5-yl)ethyl]-4-[2-(4-nitrophenyl)ethyl]piperazin-2-one], half-maximal inhibition (IC50) was put at 550 nM.
The same measure for `N#Cc1ccc2c(c1)CCC(N1CCN(CCc3ccc4nonc4c3)C(=O)C1)C2` (racemic) [Example 14, 6-{4-[2-(2,1,3-Benzoxadiazol-5-yl)ethyl]-3-oxopiperazin-1-yl}-5,6,7,8-tetrahydronaphthalene-2-carbonitrile]: 820 nM.
To `O=C1CN(CCc2ccc([N+](=O)[O-])cc2F)CCN1CCc1ccc([N+](=O)[O-])cc1` [Example 12, 4-[2-(2-Fluoro-4-nitrophenyl)ethyl]-1-[2-(4-nitrophenyl)ethyl]piperazin-2-one] belongs 140 nM.
Take `N#Cc1ccc2c(c1)CCC2CN1CCN(CCc2ccc3c(c2)COC3=O)CC1=O` (racemic) [Example 40, 1-({2-Oxo-4-[2-(1-oxo-1,3-dihydro-2-benzofuran-5-yl)ethyl]piperazin-1-yl}methyl)-2,3-dihydro-1H-indene-5-carbonitrile]: half-maximal inhibition (IC50) was put at 120 nM.
To `Cc1c(CCN2CCN(C3CCc4cc(C#N)ccc4C3)C(=O)C2)ccc2c1COC2=O` (racemic) [Example 30, 6-{4-[2-(4-Methyl-1-oxo-1,3-dihydro-2-benzofuran-5-yl)ethyl]-2-oxopiperazin-1-yl}-5,6,7,8-tetrahydronaphthalene-2-carbonitrile] belongs 310 nM; to `N#Cc1ccc2c(c1)CC(N1CCN(CCc3ccc4c(c3)COC4=O)CC1=O)C2` (racemic) [Example 44, 2-{2-Oxo-4-[2-(1-oxo-1,3-dihydro-2-benzofuran-5-yl)ethyl]piperazin-1-yl}-2,3-dihydro-1H-indene-5-carbonitrile], 130 nM; to `N#Cc1ccc2c(c1)CCC(N1CCN(CCc3ccc([N+](=O)[O-])cc3)CC1=O)C2` (racemic) [Example 23, 6-{4-[2-(4-Nitrophenyl)ethyl]-2-oxopiperazin-1-yl}-5,6,7,8-tetrahydronaphthalene-2-carbonitrile], 60 nM.
`N#Cc1ccc2c(c1)CC(CN1CCN(CCc3ccc4c(c3)COC4=O)CC1=O)C2` (racemic) [Example 41, 2-({2-Oxo-4-[2-(1-oxo-1,3-dihydro-2-benzofuran-5-yl)ethyl]piperazin-1-yl}methyl)-2,3-dihydro-1H-indene-5-carbonitrile] showed an IC50 of 380 nM.
Compound `N#Cc1ccc2c(c1)CCC(N1CCN([C@H]3CCc4cc(C#N)ccc4C3)C(=O)C1)C2` (stereo partly drawn) [Example 16, (6S)-6,6′-(2-oxopiperazine-1,4-diyl)-di-(5,6,7,8-tetrahydronaphthalene-2-carbonitrile)] returned an IC50 of 100 nM.
To `COc1ccc(CCN2CCN(CCc3ccc4c(c3)COC4=O)C(=O)C2)cc1C#N` [Example 32, 2-Methoxy-5-(2-{3-oxo-4-[2-(1-oxo-1,3-dihydro-2-benzofuran-5-yl)ethyl]piperazin-1-yl}ethyl)benzonitrile] belongs 460 nM.
The same measure for `N#Cc1ccc2c(c1)CCC(N1CCN([C@@H]3CCc4cc(C#N)ccc4C3)C(=O)C1)C2` (stereo partly drawn) [Example 17, (6R)-6,6′-(2-oxopiperazine-1,4-diyl)-di-(5,6,7,8-tetrahydronaphthalene-2-carbonitrile)]: 70 nM; for `N#Cc1ccc2c(c1)CCC(N1CCN(CCc3ccc([N+](=O)[O-])cc3)C(=O)C1)C2` (racemic) [Example 2, 6-(4-(4-nitrophenethyl)-3-oxopiperazin-1-yl)-5,6,7,8-tetrahydronaphthalene-2-carbonitrile]: 40 nM; for `O=C1CN(CCc2ccc([N+](=O)[O-])c(F)c2)CCN1CCc1ccc2nonc2c1` [Example 20, 1-[2-(2,1,3-Benzoxadiazol-5-yl)ethyl]-4-[2-(3-fluoro-4-nitrophenyl)ethyl]piperazin-2-one]: 170 nM.
In the case of `N#Cc1ccc2c(c1)CCC(N1CCN(CCc3ccc4c(=O)occc4c3)CC1=O)C2` (racemic) [Example 43, 6-{2-Oxo-4-[2-(1-oxo-1H-isochromen-6-yl)ethyl]piperazin-1-yl}-5,6,7,8-tetrahydronaphthalene-2-carbonitrile], the midpoint of inhibition, the IC50, lay at 210 nM.
As for `Cc1cc([N+](=O)[O-])ccc1CCN1CCN(CCc2ccc([N+](=O)[O-])cc2)C(=O)C1` [Example 19, 4-[2-(2-Methyl-4-nitrophenyl)ethyl]-1-[2-(4-nitrophenyl)ethyl]piperazin-2-one], the IC50 is 50 nM.
The same measure for `O=C1CN(CCc2ccc([N+](=O)[O-])c(C(F)(F)F)c2)CCN1CCc1ccc([N+](=O)[O-])cc1` [Example 3, 1-[2-(4-Nitrophenyl)ethyl]-4-{2-[4-nitro-3-(trifluoromethyl)phenyl]ethyl}piperazin-2-one]: 740 nM; for `N#Cc1ccc2c(c1)CCC(N1CCN(CCc3ccc4nonc4c3)CC1=O)C2` (racemic) [Example 13, 6-{4-[2-(2,1,3-Benzoxadiazol-5-yl)ethyl]-2-oxopiperazin-1-yl}-5,6,7,8-tetrahydronaphthalene-2-carbonitrile]: 310 nM; for `CC1C(=O)N(CCc2ccc([N+](=O)[O-])cc2)CCN1CCc1ccc([N+](=O)[O-])cc1` (racemic) [Example 6, 3-Methyl-1,4-bis[2-(4-nitrophenyl)ethyl]piperazin-2-one]: 270 nM.
`N#Cc1ccc2c(c1)CC(N1CCN(CCc3ccc4c(c3)COC4=O)CC1=O)CC2` (racemic) [Example 37, 7-{2-Oxo-4-[2-(1-oxo-1,3-dihydro-2-benzofuran-5-yl)ethyl]piperazin-1-yl}-5,6,7,8-tetrahydronaphthalene-2-carbonitrile]: the midpoint of inhibition, the IC50, lay at 280 nM.
To `N#Cc1ccc(CCN2CCN(CCc3ccc4c(c3)COC4=O)CC2=O)cc1Cl` [Example 36, 2-Chloro-4-(2-{2-oxo-4-[2-(1-oxo-1,3-dihydro-2-benzofuran-5-yl)ethyl]piperazin-1-yl}ethyl)benzonitrile] belongs 110 nM; to `COc1cc(CCN2CCN(CCc3ccc([N+](=O)[O-])cc3)C(=O)C2)ccc1[N+](=O)[O-]` [Example 22, 4-[2-(3-Methoxy-4-nitrophenyl)ethyl]-1-[2-(4-nitrophenyl)ethyl]piperazin-2-one], 170 nM.
The same measure for `O=C1OCc2cc(CCN3CCN(CCc4ccc5c(c4)COC5=O)C(=O)C3)ccc21` [Example 29, 1,4-Bis[2-(1-oxo-1,3-dihydro-2-benzofuran-5-yl)ethyl]piperazin-2-one]: 420 nM.
